Entries after “also recorded” stand apart in the source; their conditions may differ.
What was measured:
[1] = tested on: Factor VII; experiment: In vivo Factor VII gene silencing in mice; set-up: species or system C57BL/6 mice
Description: APPL, distearoyl phosphatidylcholine (DSPC), cholesterol and mPEG2000-DMG were solubilized in 90% ethanol at a molar ratio of 50:10:38.5:1.5. The siRNA (against firefly luciferase or fVII) was solubilized in 10 mM citrate, pH 3 buffer at a concentration of 0.4 mg/mL. The ethanolic lipid solution and the aqueous siRNA solution were pumped by means of a syringe pump through a microfluidic mixing chamber to spontaneously form siRNA-containing lipid nanoparticles. Lipids were combined with siRNA at a total lipid to siRNA ratio of 7:1 (wt:wt). These formulations were dialyzed against PBS to remove ethanol and exchange buffer. […]
C57BL/6 mice (Charles River Labs) were used for siRNA silencing experiments. […] After 48 or 72 h, body-weight gain/loss was measured and mice were anaesthetized by isofluorane inhalation for blood sample collection by retroorbital eye bleed. Serum was isolated with serum separation tubes (Falcon tubes, Becton Dickinson) and Factor VII protein levels were analyzed by chromogenic assay (Biophen FVII, Aniara Corporation). A standard curve was constructed using samples from PBS-injected mice and relative Factor VII expression was determined by comparing treated groups to untreated PBS control. […]

[2] = tested on: firefly luciferase; experiment: In vitro siRNA transfection assay (luciferase silencing) in HeLa cells with apolipoproteins; format: cell-based; conditions: for order of silencing effects: with addition of ApoE3 (ApoE), siRNA 50 ng/well
Description: HeLa cells, stably expressing firefly luciferase and Renilla luciferase, were seeded (14,000 cells/well) into each well of an opaque white 96-well plate (Corning-Costar) and allowed to attach overnight in growth medium. Growth medium was composed of 90% phenol red-free DMEM, 10% FBS, 100 units/ml penicillin, […] streptomycin (Invitrogen). Cells were transfected with LNPs formulated with anti-luciferase siRNA by addition of formulated particles to growth medium. Transfections were performed in quadruplicate. Cells were allowed to grow for 1 d at 37° C., 5% CO2 and were then analyzed for luciferase expression. Control experiments were performed with Lipofectamine 2000, as described by the vendor (Invitrogen). Firefly and Renilla luciferase expression was analyzed using Dual-Glo assay kits (Promega). Luminescence was measured using a Victor3 luminometer (Perkin Elmer). Effects of apolipoproteins were evaluated through an in vitro siRNA transfection assay in HeLa cells as previously reported. HeLa cells, stably expressing firefly luciferase and Renilla luciferase were seeded in an opaque white 96-well plate (Corning-Costar) overnight. Cells were transfected by cKK-E12 formulated with 50 ng of firefly-specific siLuc in quadruplicate. Apolipoproteins (Fitzgerald Industries) were incubated with cKK-E12 formulations for 5 mins before adding to cells. After 24 h incubation at 37° C., 5% CO2, cells were analyzed for luciferase expression using Dual-Glo assay kits (Promega). For visualization of cell uptake, cKK-E12 was formulated with an Alexa-Fluor siRNA and incubated with Hela cells for 3 h. Cells were then fixed in 4% paraformaldehyde, permeabilized with 0.1% saponin and stained with Hoescht. All images were acquired using an Opera spinning disc confocal system (Perkin Elmer), and the data was analyzed using Acapella Software (Perkin Elmer).

SMILES	Factor VII silencing, relative potency ([1]; lower dose of 0.1 mg/kg, 0.1 mg/kg)	Factor VII silencing, relative potency ([1]; siRNA formulation, systemic administration, dose of 1 mg/kg)	order of silencing effects [2]	luciferase silencing, relative potency ([2]; without addition of ApoE3, siRNA 50 ng/well)
CCCCCCCCCCC(O)CN(CCCCC1NC(=O)C(CCCCN(CC(O)CCCCCCCCCC)CC(O)CCCCCCCCCC)NC1=O)CC(O)CCCCCCCCCC (centres unmarked) [cKK-E12]	lead compound; also recorded: most potent material	more potent than aldehyde and acrylate derivatives	cKK-E12>cKK-A12>cKK-O12	
CCCCCCCCCCCCN(CCCCCCCCCCCC)CCCCC1NC(=O)C(CCCCN(CCCCCCCCCCCC)CCCCCCCCCCCC)NC1=O (centres unmarked) [cKK-A12]			cKK-E12>cKK-A12>cKK-O12	more potent than cKK-E12 and cKK-O12

Reference: patent US9512073B2, “Amino acid-, peptide-and polypeptide-lipids, isomers, compositions, and uses thereof” (Massachusetts Institute of Technology, priority 2011, dated 2016)
